# Measured values published in ChEMBL document CHEMBL3259623, “A mixed population of antagonist and agonist binding conformers in a single crystal explains partial agonism against vitamin D receptor: active vitamin D analogues with 22R-alkyl group” (J Med Chem, 2014).
# Molecular target: T1, Vitamin D3 receptor (Homo sapiens, UniProt P11473)
# T1 sequence (P11473 whole entry): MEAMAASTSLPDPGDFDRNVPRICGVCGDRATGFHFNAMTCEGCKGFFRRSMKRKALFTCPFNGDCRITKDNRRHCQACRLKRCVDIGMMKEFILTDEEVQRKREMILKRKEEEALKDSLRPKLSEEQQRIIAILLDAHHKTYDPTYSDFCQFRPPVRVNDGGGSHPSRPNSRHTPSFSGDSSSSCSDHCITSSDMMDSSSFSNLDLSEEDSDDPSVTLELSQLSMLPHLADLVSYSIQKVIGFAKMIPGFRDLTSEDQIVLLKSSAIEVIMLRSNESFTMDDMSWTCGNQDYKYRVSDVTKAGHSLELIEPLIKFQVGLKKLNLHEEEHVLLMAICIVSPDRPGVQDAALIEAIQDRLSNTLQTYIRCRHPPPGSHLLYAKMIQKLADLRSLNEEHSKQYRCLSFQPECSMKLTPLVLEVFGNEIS
# Description: Displacement of [3H]-1-alpha,25-dihydroxyvitamin D3 from N-terminal GST-tagged human recombinant VDR LBD expressed in Escherichia coli Rosetta2 (DE3) after 16 hrs
row,IC50,SMILES
1,0.12 nM,C=C1[C@H](O)CC(=C/C=C2\CCC[C@]3(C)[C@@H]([C@H](C)[C@H](CCCC)CC(C)(C)O)CC[C@@H]23)C[C@H]1O
2,2.39 nM,C=C1[C@H](O)CC(=C/C=C2\CCC[C@]3(C)[C@@H]([C@H](C)[C@H](CC)CCC(C)(C)O)CC[C@@H]23)C[C@H]1O
3,1.79 nM,C=C1[C@H](O)CC(=C/C=C2\CCC[C@]3(C)[C@@H]([C@H](C)[C@H](CCCC)CC(O)(CC)CC)CC[C@@H]23)C[C@H]1O
4,1.55 nM,C=C1[C@H](O)CC(=C/C=C2\CCC[C@]3(C)[C@@H]([C@H](C)[C@H](CC)CC(O)(CC)CC)CC[C@@H]23)C[C@H]1O
5,1.55 nM,C=C1[C@H](O)CC(=C/C=C2\CCC[C@]3(C)[C@@H]([C@H](C)[C@H](CC)CC(C)(C)O)CC[C@@H]23)C[C@H]1O
6,2.87 nM,C=C1[C@H](O)CC(=C/C=C2\CCC[C@]3(C)[C@@H]([C@H](C)[C@H](CC)CCO)CC[C@@H]23)C[C@H]1O
7,0.89 nM,C=C1[C@H](O)CC(=C/C=C2\CCC[C@]3(C)[C@@H]([C@H](C)[C@H](CCCC)CCCO)CC[C@@H]23)C[C@H]1O
8,0.26 nM,C=C1[C@H](O)CC(=C/C=C2\CCC[C@]3(C)[C@@H]([C@H](C)[C@@H](CCO)CCCC)CC[C@@H]23)C[C@H]1O
9,0.29 nM,C=C1[C@H](O)CC(=C/C=C2\CCC[C@]3(C)[C@@H]([C@H](C)[C@H](CCCC)CCC(C)(C)O)CC[C@@H]23)C[C@H]1O
10,7.16 nM,C=C1[C@H](O)CC(=C/C=C2\CCC[C@]3(C)[C@@H]([C@H](C)[C@H](CC)CCCO)CC[C@@H]23)C[C@H]1O
